Results from PMC8474116, “Discovery of Novel Acetamide-Based Heme Oxygenase-1 Inhibitors with Potent In Vitro Antiproliferative Activity” (Journal of Medicinal Chemistry, 2021).

Legend:
HO-1 [1] = assay: HO-1 protein expression by Western blot, DU145; assay type: cell-based; conditions: DU145, 10 μM, 48 h
Experimental: (§1) Proteins were extracted from total cell lysate, as previously described.[61] Briefly, cell lines were added to a buffer containing 20 mM Tris (pH 7.4), 2 mM EDTA, 0.5 mM EGTA, 50 mM mercaptoethanol, and […] sucrose supplemented with phosphatase and protease inhibitor cocktails (Roche Diagnostics, Monza, Italy). Subsequently, protein samples were sonicated twice for 20′ by using an ultrasonic probe, followed by centrifugation at 10 000g for 10 min at 4 °C. Sample proteins (30 μg) were diluted in 4X NuPage LDS sample buffer (Invitrogen, NP0007), heated at 80 °C for 5 min, and then separated on a Biorad Criterion XT 4–15% Bis–Tris gel (BIO-RAD) by electrophoresis and then transferred to a PVDF membrane (BIO-RAD). Blots were blocked using the Odyssey Blocking Buffer (LI-COR Biosciences) and probed with appropriate antibodies: HO-1 antibody (GeneTex GTX101147), goat polyclonal anti-VEGF (cat. no. sc-1836, Santa Cruz Biotechnology), and rabbit polyclonal anti-β-tubulin (cat n.sc-9104, Santa Cruz Biotechnology) and β-actin antibody (GeneTex GTX109639).
(§2) The secondary antibodies goat antirabbit (Odyssey, #926-32211; Odyssey #926-68021) and donkey antigoat IRDye 800CW (cat #926-32214; Li-Cor Biosciences) were used at 1:7000. Blots were scanned, and densitometric analysis was performed with the Odyssey Infrared Imaging System. Values were normalized to β-actin and to β-tubulin.

HO-2 = molecular target: T1, HO-2 (Rattus norvegicus, UniProt P23711); assay: HO-2 enzymatic activity, rat brain microsomal fraction (bilirubin formation); assay type: biochemical; conditions: mean of triplicate ± SD
T1 construct: selected to use the most native (i.e., closest to in vivo) forms of HO-1 and HO-2; from tissue; host or cells: rat brain (male Sprague-Dawley), microsomal fraction
T1 sequence (P23711 1-315): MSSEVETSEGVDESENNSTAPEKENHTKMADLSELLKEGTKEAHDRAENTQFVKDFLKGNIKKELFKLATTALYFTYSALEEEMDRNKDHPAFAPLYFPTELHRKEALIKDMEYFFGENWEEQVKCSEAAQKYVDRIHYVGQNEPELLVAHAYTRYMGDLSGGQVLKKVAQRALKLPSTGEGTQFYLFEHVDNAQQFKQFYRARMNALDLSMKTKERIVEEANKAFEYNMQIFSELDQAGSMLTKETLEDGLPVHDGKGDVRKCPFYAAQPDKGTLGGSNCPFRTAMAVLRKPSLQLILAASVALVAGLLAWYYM
Experimental: (§3) HO-1 and HO-2 were obtained, respectively, from the rat spleen and brain as the microsomal fraction prepared by differential centrifugation; the dominance of HO-1 protein in the rat spleen and HO-2 in the rat brain has been well documented.[24] These particular microsomal preparations were selected to use the most native (i.e., closest to in vivo) forms of HO-1 and HO-2. Spleen and brain (Sprague-Dawley rats) microsomal fractions were prepared according to the procedure outlined by Ryter et al.[2] The experiments reported in the present paper complied with the current Italian law and met the guidelines of the Institutional Animal Care and Use Committee of the Ministry of Health (Directorate General for Animal Health and Veterinary Medicines, Italy) “Dosing of enzymatic activities in rat microsomes” (2018–2022), project code 02769.N.VLY. The experiments were performed in male Sprague-Dawley albino rats (150 g body weight and age 45 d). They had free access to water and were kept at room temperature with a natural photoperiod (12 h light–12 h dark cycle). For measuring HO-1 and HO-2 activities, each rat was sacrificed and their spleen and brain were excised and weighed. A homogenate (15%, w/v) of spleens and brains pooled from four rats was prepared in ice-cold HO-homogenizing buffer (50 mM Tris buffer, pH 7.4, containing 0.25 M sucrose) using a Potter–Elvehjem homogenizing system with a Teflon pestle. The microsomal fraction of rat spleen and brain homogenate was obtained by centrifugation at 10 000g for 20 min at 4 °C, followed by centrifugation of the supernatant at 100 000g for 60 min at 4 °C. The 100 000g pellet (microsomes) was resuspended in 100 mM of potassium phosphate buffer, pH 7.8, containing 2 mM MgCl2 with a Potter–Elvehjem homogenizing system. The rat spleen and brain microsomal fractions were divided into equal aliquots, placed into microcentrifuge tubes, and stored at −80 °C for up to 2 months.
(§4) Liver cytosol has been used as a source of biliverdin reductase. Rat liver was perfused through the hepatic portal vein with cold 0.9% NaCl; then, it was cut and flushed with 2 × 20 mL of ice-cold PBS to remove all of the blood. Liver tissue was homogenized in 3 volumes of a solution containing 1.15% KCl w/v and Tris buffer 20 mM, pH 7.8 on ice. Homogenates were centrifuged at 10 000g for 20 min at 4 °C. The supernatant was decanted and centrifuged at 100 000g for 1 h at 4 °C to sediment the microsomes. The 100 000g supernatant was saved and then stored in small amounts at −80 °C after its protein concentration was measured.
(§5) The HO-1 and HO-2 activities were determined by measuring the bilirubin formation using the difference in absorbance at 464–530 nm, as described by Ryter et al.[2] Reaction mixtures (500 μL) consisted of 20 mM of Tris–HCl, pH 7.4, (1 mg/mL) microsomal extract, 0.5–2 mg/mL of biliverdin reductase, 1 mM of NADPH, 2 mM of glucose 6-phosphate (G6P), 1 U of G6P dehydrogenase, 25 μM of hemin, and 10 μL of DMSO (or the same volume of DMSO solution of test compounds to a final concentration of 100, 10, and 1 μM). Incubations were carried out for 60 min at 37 °C in a circulating water bath in the dark. Reactions were stopped by adding the same volume of chloroform. After recovering the chloroform phase, the amount of bilirubin formed was measured with a double-beam spectrophotometer as OD464–530 nm (extinction coefficient, 40 mM/cm^–1 for bilirubin). One unit of the enzyme was defined as the amount of enzyme catalyzing the formation of 1 nmol of bilirubin/mg protein/h.

A172 cells = assay: MTT cell viability assay, A172; assay type: cell-based, human; conditions: 48 h, all tested concentrations (1, 10, 50 μM)
Experimental: Experiments were performed on human GBM cell lines U87MG (ATCCC number #HTB-14) and A172 (ATCCC #CRL-1620) on DU145 (ATCC HTB-81) and human lung adenocarcinoma A549 (ATCC CCL-185-LUC2). All cell lines were obtained from the American Type Culture Collection (ATCC, Rockville, MD). Cells were grown in Dulbecco’s modified Eagle’s medium (DMEM) supplemented with 10% of heat-inactivated fetal bovine serum (FBS), 100 U/mL of penicillin, and 100 μg/mL of streptomycin (Sigma-Aldrich, Steinheim, Germany). Cells were incubated at 37 °C in a humidified atmosphere with 5% CO2.
The effect of selected compounds 7i and 7l–p on cell viability was assessed by performing an MTT assay. Cells were seeded into 96-well plates at a density of 7 × 10^3 cells/well in 100 μL of culture medium. After 24 h, cells were treated with selected compounds at three different concentrations (1 μM, 10 μM, and 50 μM) for 48 h. Following treatments, 0.5 mg/mL of 3-[4,5-dimethylthiazol-2-yl]-2,5-diphenyltetrazolium bromide (MTT) (Sigma-Aldrich) was added to each well and incubated for 4 h at 37 °C. Finally, dimethyl-sulfoxide (DMSO) was used to dissolve formazan salts, and absorbance was measured at 570 nm in a microplate reader (Biotek Synergy-HT). Eight replicate wells were used for each group.

HO-1 [2] = assay: HO-1 protein expression by Western blot, A172; assay type: cell-based, human; conditions: A172, 10 μM, 48 h
Experimental: as §1, §2

HO-1 [3] = molecular target: T2, HO-1 (Rattus norvegicus, UniProt P06762); assay: HO-1 enzymatic activity, rat spleen microsomal fraction (bilirubin formation); assay type: biochemical
T2 construct: selected to use the most native (i.e., closest to in vivo) forms of HO-1 and HO-2; from tissue; host or cells: rat spleen (male Sprague-Dawley), microsomal fraction
T2 sequence (P06762 1-289): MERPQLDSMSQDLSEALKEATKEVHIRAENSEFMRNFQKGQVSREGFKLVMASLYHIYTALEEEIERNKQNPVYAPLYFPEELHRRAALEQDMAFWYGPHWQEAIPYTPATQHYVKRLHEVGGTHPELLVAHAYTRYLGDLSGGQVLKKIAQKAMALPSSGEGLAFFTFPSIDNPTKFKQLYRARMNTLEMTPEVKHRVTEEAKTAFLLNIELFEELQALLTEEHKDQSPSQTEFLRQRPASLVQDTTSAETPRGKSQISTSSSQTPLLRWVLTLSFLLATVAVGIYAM
Experimental: as §3, §4, §5

HO-1 [4] = assay: HO-1 inhibition of known inhibitors (values printed in Figure 1); assay type: biochemical; conditions: 0.27 vs 4.0 μM

| Compound | HO-1 protein expression (in words) (HO-1 [1]) | IC50 (HO-2) | melting point | cell viability reduction (in words) (A172 cells) | HO-1 protein expression (in words) (HO-1 [2]) | HO-1 vs HO-2 selectivity (in words) (HO-1 [3]) | fold more potent than parent compound 4 (HO-1) (HO-1 [3]) | IC50 (HO-1 [3]; rat spleen microsomal fraction, mean of triplicate ± SD) | SI (HO-2/HO-1) (HO-1 [3]; ratio of HO-2 and HO-1 IC50) | fold higher inhibitory potency toward HO-1 with respect to monophenyl analogue 2 (HO-1 [4]) |
| --- | --- | --- | --- | --- | --- | --- | --- | --- | --- | --- |
| CN(C(=O)Cn1ccnc1)C(c1ccccc1)c1ccccc1 [7i, N-Benzhydryl-2-(1H-imidazol-1-yl)-N-methylacetamide] | reduced HO-1 protein expression | 900 ± 50 nM | 121 to 126 °C | remarkable reduction of cell viability | enhanced its levels | superimposable HO-1 and HO-2 IC50 values | about 32 fold | 900 ± 70 nM | 1 |  |
| O=C(CC(c1ccccc1)c1ccccc1)Cn1ccnc1 [compound 3] |  |  |  |  |  |  |  |  |  | 15 fold |
